From publication PMC4315936 (Redox Biology, 2015)

Target: mitochondrial complex I (NADH:ubiquinone oxidoreductase, NQR) (Mus musculus, UniProt P03888+Q91WD5+Q9DC70)
Experiment: NQR activity
Format: biochemical

Structure (SMILES): O=C1Nc2ccc(Cl)cc2[C@@](C#CC2CC2)(C(F)(F)F)O1 [EFV, efavirenz]
- IC50: < 10 µM
